From ChEMBL document CHEMBL1123552 (J Med Chem, 1987)
Values after ≈ are worked out from the molar mass of the structure shown. Values joined by “and” are separate entries in the source; they are usually repeats but may differ in a detail not shown here. Equal values may be shown once.

Columns and labels:
Plasmodium falciparum [1] = test: In vitro antimalarial activity against Plasmodium falciparum D6 Sierra Leone; assay type: functional, organism-based
Plasmodium falciparum [2] = test: In vitro antimalarial activity against Plasmodium falciparum W-2 (Indochina); assay type: functional, organism-based
Mus musculus [3] = test: Antimalarial activity against Plasmodium berghei in mice (Mus musculus) expressed as number of cures was determined at a dose of 640 mg/kg; assay type: functional
Mus musculus [4] = test: Antimalarial activity against Plasmodium berghei in mice (Mus musculus) expressed as number of cures was determined at a dose of 160 mg/kg; assay type: functional
Mus musculus [5] = test: Antimalarial activity against Plasmodium berghei in mice (Mus musculus) expressed as number of cures was determined at a dose of 40 mg/kg; assay type: functional

Structure (SMILES)	IC50 (Plasmodium falciparum [1]) [ng/mL]	IC50 (Plasmodium falciparum [2]) [ng/mL]	No. of cures (Mus musculus [3])	No. of cures (Mus musculus [4])	No. of cures (Mus musculus [5]; 40 mg/kg)	No. of cures (Mus musculus [5])
C[C@H]1[C@@H](OCC(=O)O)O[C@@H]2OC3(C)CC[C@H]4[C@H](C)CC[C@@H]1[C@@]24OO3 (single isomer, unassigned)	53.8 (≈ 157 nM)	26.2 (≈ 76.6 nM)	–	–	–	–
COC(=O)CCCO[C@H]1O[C@@H]2OC3(C)CC[C@H]4[C@H](C)CC[C@@H]([C@H]1C)[C@@]24OO3 (single isomer, unassigned)	3.06 (≈ 7.96 nM)	0.95 (≈ 2.47 nM)	–	–	–	–
C[C@H]1[C@@H](OCc2ccc(C(=O)O)cc2)O[C@@H]2OC3(C)CC[C@H]4[C@H](C)CC[C@@H]1[C@@]24OO3 (single isomer, unassigned)	1.74 (≈ 4.16 nM)	0.92 (≈ 2.2 nM)	–	–	–	–
C[C@H]1[C@@H](OCCC(=O)O)O[C@@H]2OC3(C)CC[C@H]4[C@H](C)CC[C@@H]1[C@@]24OO3 (single isomer, unassigned; 8b)	51.7 (≈ 145 nM)	35.6 (≈ 100 nM)	–	–	–	–
COC(=O)c1ccc(CO[C@H]2O[C@@H]3OC4(C)CC[C@H]5[C@H](C)CC[C@@H]([C@H]2C)[C@@]35OO4)cc1 (single isomer, unassigned)	0.77 (≈ 1.78 nM)	0.37 (≈ 0.855 nM)	–	–	–	–
C[C@H]1[C@@H](OCCC(=O)O)O[C@@H]2OC3(C)CC[C@H]4[C@H](C)CC[C@@H]1[C@@]24OO3 (single isomer, unassigned; 7b)	85 (≈ 239 nM)	23.3 (≈ 65.3 nM)	–	–	–	–
CCOC(=O)CO[C@H]1O[C@@H]2OC3(C)CC[C@H]4[C@H](C)CC[C@@H]([C@H]1C)[C@@]24OO3 (single isomer, unassigned)	0.6 (≈ 1.62 nM)	0.26 (≈ 0.702 nM)	–	–	–	–
C[C@H]1[C@H](OC(=O)CCC(=O)[O-])O[C@@H]2O[C@@]3(C)CC[C@H]4[C@H](C)CC[C@@H]1[C@@]24OO3.[Na+] [SODIUM ARESUNATE]	–	–	5	–	–	–
C[C@H]1[C@@H](OCCCC(=O)O)O[C@@H]2OC3(C)CC[C@H]4[C@H](C)CC[C@@H]1[C@@]24OO3 (single isomer, unassigned)	75.5 (≈ 204 nM)	10.5 (≈ 28.4 nM)	–	–	–	–
C[C@@H]1CC[C@H]2[C@@H](C)C(=O)O[C@@H]3O[C@@]4(C)CC[C@@H]1[C@]32OO4 [ARTEMISININ]	2.93 (≈ 10.4 nM)	0.66 (≈ 2.34 nM)	5	5	3 and 2	–
C[C@H]1[C@@H](OCCCC(=O)O)O[C@@H]2O[C@]3(C)CC[C@H]4[C@H](C)CC[C@@H]1[C@@]24OO3	17.9 (≈ 48.3 nM)	8.04 (≈ 21.7 nM)	–	–	–	–
COC(=O)CCO[C@H]1O[C@@H]2OC3(C)CC[C@H]4[C@H](C)CC[C@@H]([C@H]1C)[C@@]24OO3 (single isomer, unassigned)	1.84 (≈ 4.97 nM)	0.64 (≈ 1.73 nM)	–	–	–	–
C[C@@H]1[C@H](OCc2ccc(C(=O)O)cc2)O[C@@H]2O[C@@]3(C)CC[C@@H]4[C@@H](C)CC[C@@H]1[C@]24OO3 [ARTELINIC ACID]	4.07 (≈ 9.73 nM)	1.38 (≈ 3.3 nM)	5	5	–	5
